Test results as given in patent US8445503B2, “Inhibitors of polo-like kinase” (Elan Pharmaceuticals, Inc., priority 2009, dated 2013).
pIC50: −log10 of the molar value.

Columns and labels:
Assay type in all cases: biochemical
GST-PLK2 = target: T1, GST-PLK2 (Homo sapiens, UniProt Q9NYY3); experiment: PLK TR-FRET peptide assay, PLK2; conditions: for pIC50: PLK TR-FRET peptide assay, GST-PLK2, read-out: Plk2 IC50; for PLK2 activity relative to the opposite enantiomer / other isomer: comparison of resolved enantiomers, used to assign absolute configuration
T1 construct: purchased CarnaBio
T1 sequence (Q9NYY3 whole entry): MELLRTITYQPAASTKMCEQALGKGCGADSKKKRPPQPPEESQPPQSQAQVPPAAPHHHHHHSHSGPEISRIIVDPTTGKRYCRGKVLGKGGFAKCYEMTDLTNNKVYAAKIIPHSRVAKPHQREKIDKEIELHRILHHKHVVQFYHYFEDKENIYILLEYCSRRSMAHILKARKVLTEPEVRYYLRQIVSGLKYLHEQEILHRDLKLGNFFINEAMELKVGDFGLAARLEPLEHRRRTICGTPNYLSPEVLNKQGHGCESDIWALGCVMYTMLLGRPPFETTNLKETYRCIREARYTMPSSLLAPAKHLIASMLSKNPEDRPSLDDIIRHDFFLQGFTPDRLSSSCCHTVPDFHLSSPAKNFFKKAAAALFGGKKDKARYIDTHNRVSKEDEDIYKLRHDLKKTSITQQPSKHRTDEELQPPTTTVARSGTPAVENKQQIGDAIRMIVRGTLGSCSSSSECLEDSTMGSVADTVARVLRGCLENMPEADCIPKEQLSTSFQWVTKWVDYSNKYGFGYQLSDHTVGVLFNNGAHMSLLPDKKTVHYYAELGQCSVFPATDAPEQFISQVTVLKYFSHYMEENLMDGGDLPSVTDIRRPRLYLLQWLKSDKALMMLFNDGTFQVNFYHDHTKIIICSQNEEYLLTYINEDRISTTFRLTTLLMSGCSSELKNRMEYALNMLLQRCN

GST-PLK3 = target: T2, GST-PLK3 (Homo sapiens, UniProt Q9H4B4); experiment: PLK TR-FRET peptide assay, PLK3; conditions: PLK TR-FRET peptide assay, GST-PLK3; read-out: Plk3 IC50
T2 construct: purchased CarnaBio
T2 sequence (Q9H4B4 whole entry): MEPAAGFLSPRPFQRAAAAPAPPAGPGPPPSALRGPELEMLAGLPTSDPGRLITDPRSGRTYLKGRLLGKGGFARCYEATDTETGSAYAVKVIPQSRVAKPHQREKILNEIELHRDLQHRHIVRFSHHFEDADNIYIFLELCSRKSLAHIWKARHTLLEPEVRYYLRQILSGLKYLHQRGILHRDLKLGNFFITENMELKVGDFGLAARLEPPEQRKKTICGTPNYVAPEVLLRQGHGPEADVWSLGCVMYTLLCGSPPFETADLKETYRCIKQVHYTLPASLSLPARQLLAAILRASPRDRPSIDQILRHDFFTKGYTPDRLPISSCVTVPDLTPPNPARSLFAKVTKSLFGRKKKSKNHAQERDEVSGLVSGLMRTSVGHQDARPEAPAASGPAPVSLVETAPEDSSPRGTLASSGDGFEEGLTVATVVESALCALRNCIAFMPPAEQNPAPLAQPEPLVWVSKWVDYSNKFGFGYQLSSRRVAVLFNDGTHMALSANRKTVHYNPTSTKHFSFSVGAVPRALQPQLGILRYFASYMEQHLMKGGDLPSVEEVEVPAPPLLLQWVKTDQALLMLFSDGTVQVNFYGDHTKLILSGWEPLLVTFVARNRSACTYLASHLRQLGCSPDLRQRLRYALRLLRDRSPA

GST-PLK1 = GST-PLK1 (Homo sapiens, UniProt P53350); experiment: PLK TR-FRET peptide assay, PLK1; conditions: read-out: Plk1 IC50
Sequence of GST-PLK1 (P53350 whole entry): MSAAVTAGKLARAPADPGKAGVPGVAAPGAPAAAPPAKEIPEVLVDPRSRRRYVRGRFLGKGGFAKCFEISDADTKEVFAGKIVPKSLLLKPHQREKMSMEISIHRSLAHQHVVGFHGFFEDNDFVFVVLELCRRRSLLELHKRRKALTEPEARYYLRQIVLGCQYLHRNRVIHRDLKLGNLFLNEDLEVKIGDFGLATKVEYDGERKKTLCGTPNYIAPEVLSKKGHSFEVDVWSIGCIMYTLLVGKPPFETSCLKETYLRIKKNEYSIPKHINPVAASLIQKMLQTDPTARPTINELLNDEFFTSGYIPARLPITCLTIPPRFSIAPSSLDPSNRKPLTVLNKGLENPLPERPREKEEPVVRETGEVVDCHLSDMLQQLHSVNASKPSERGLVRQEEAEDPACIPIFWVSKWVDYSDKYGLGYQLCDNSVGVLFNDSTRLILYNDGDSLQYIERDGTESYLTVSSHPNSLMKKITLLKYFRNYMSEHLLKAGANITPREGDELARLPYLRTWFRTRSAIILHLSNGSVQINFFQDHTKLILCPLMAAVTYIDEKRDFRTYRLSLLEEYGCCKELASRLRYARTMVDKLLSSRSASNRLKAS

SMILES	pIC50 (GST-PLK2)	pIC50 (GST-PLK3)	pIC50 (GST-PLK1)	PLK2 activity relative to the opposite enantiomer / other isomer (GST-PLK2)
CC[C@@H]1C(=O)N(C)c2cnc(-n3ccnc3)nc2N1C1CCOC1 (single isomer, unassigned) [Example 299]	> 6.00	4.30 to 5.00	5.00 to 6.00	–
CC[C@]12COCCN1c1nc(-c3snnc3-c3ccc(F)cn3)ncc1N(C)C2=O [Example 416, (R)-6a-ethyl-2-(4-(5-fluoropyridin-2-yl)-1,2,3-thiadiazol-5-yl)-5-methyl-6a,7,9,10-tetrahydro-[1,4]oxazino[3,4-h]pteridin-6(5H)-one]	4.30 to 5.00	< 4.30	< 4.30	–
CC[C@]12COCCN1c1nc(-c3ccncc3-c3ccccc3)ncc1N(C)C2=O [Example 396, (R)-6a-ethyl-5-methyl-2-(3-phenylpyridin-4-yl)-6a,7,9,10-tetrahydro-[1,4]oxazino[3,4-h]pteridin-6(5H)-one]	< 4.30	< 4.30	< 4.30	–
CC[C@@H]1C(=O)N(C)c2cnc(-n3ccnc3-c3ccc(F)cc3)nc2N1C1COC1 [Example 328, (R)-7-ethyl-2-(2-(4-fluorophenyl)-1H-imidazol-1-yl)-5-methyl-8-(oxetan-3-yl)-7,8-dihydropteridin-6(5H)-one]	5.00 to 6.00	< 4.30	< 4.30	–
CC[C@@]12CCCN1c1nc(-n3ccnc3-c3ccccn3)ncc1N(C)C2=O [Example 145, (S)-6a-ethyl-5-methyl-2-(2-(pyridin-2-yl)-1H-imidazol-1-yl)-6a,7,8,9-tetrahydropyrrolo[2,1-h]pteridin-6(5H)-one]	5.00 to 6.00	4.30 to 5.00	4.30 to 5.00	–
CC[C@@H]1C(=O)N(C)c2cnc(-n3ccnc3-c3ccccc3)nc2N1c1cnn(C)c1 [Example 409, (R)-7-ethyl-5-methyl-8-(1-methyl-1H-pyrazol-4-yl)-2-(2-phenyl-1H-imidazol-1-yl)-7,8-dihydropteridin-6(5H)-one]	> 6.00	5.00 to 6.00	> 6.00	more active compound
CC[C@@H]1C(=O)N(C)c2cnc(-n3ccnc3-c3cccnc3)nc2N1C(C)C [Example 154, (R)-7-ethyl-8-isopropyl-5-methyl-2-(2-(pyridin-3-yl)-1H-imidazol-1-yl)-7,8-dihydropteridin-6(5H)-one]	> 6.00	4.30 to 5.00	5.00 to 6.00	–
CC[C@@H]1C(=O)N(C)c2cnc(-n3ccnc3-c3ccncc3)nc2N1C1CCOCC1 [Example 100, (R)-7-ethyl-5-methyl-2-(2-(pyridin-4-yl)-1H-imidazol-1-yl)-8-(tetrahydro-2H-pyran-4-yl)-7,8-dihydropteridin-6(5H)-one]	> 6.00	5.00 to 6.00	5.00 to 6.00	–
CC[C@@]12COCCN1c1nc(-c3cnoc3-c3ccccc3)ncc1N(C)C2=O [Example 413, (S)-6a-ethyl-5-methyl-2-(5-phenylisoxazol-4-yl)-6a,7,9,10-tetrahydro-[1,4]oxazino[3,4-h]pteridin-6(5H)-one]	> 6.00	4.30 to 5.00	4.30 to 5.00	–
CC[C@@H]1C(=O)N(C)c2cnc(-n3ccnc3-c3ccccn3)nc2N1C(C)C [Example 153, (R)-7-ethyl-8-isopropyl-5-methyl-2-(2-(pyridin-2-yl)-1H-imidazol-1-yl)-7,8-dihydropteridin-6(5H)-one]	> 6.00	5.00 to 6.00	5.00 to 6.00	–
CC[C@@H]1C(=O)N(C)c2cnc(-n3ccc(C(=O)O)n3)nc2N1C1CCCC1 [Example 56, (R)-1-(8-cyclopentyl-7-ethyl-5-methyl-6-oxo-5,6,7,8-tetrahydropteridin-2-yl)-1H-pyrazole-3-carboxylic acid]	> 6.00	4.30 to 5.00	5.00 to 6.00	–
CC[C@@]12COCCN1c1nc(-c3snnc3-c3ccccc3)ncc1N(C)C2=O [Example 368, (S)-6a-ethyl-5-methyl-2-(4-phenyl-1,2,3-thiadiazol-5-yl)-6a,7,9,10-tetrahydro-[1,4]oxazino[3,4-h]pteridin-6(5H)-one]	> 6.00	5.00 to 6.00	< 4.30	more active compound

Other lines, results leading:

pIC50 (GST-PLK2)	pIC50 (GST-PLK3)	pIC50 (GST-PLK1)	PLK2 activity relative to the opposite enantiomer / other isomer (GST-PLK2)	SMILES
> 6.00	4.30 to 5.00	5.00 to 6.00	–	CC[C@@H]1C(=O)N(C)c2cnc(-n3cnc(CC#N)c3)nc2N1C1CCCC1 [Example 35, (R)-2-(1-(8-cyclopentyl-7-ethyl-5-methyl-6-oxo-5,6,7,8-tetrahydropteridin-2-yl)-1H-imidazol-4-yl)acetonitrile]
> 6.00	< 4.30	5.00 to 6.00	–	CC[C@@H]1C(=O)N(C)c2cnc(-n3ccnc3-c3cnccn3)nc2N1C1CCOCC1 [Example 140, (R)-7-ethyl-5-methyl-2-(2-(pyrazin-2-yl)-1H-imidazol-1-yl)-8-(tetrahydro-2H-pyran-4-yl)-7,8-dihydropteridin-6(5H)-one]
> 6.00	4.30 to 5.00	4.30 to 5.00	–	CCC1C(=O)N(C)c2cnc(-n3ccnc3-c3ccccc3)nc2N1N (centres unmarked) [Example 278, 8-amino-7-ethyl-5-methyl-2-(2-phenyl-1H-imidazol-1-yl)-7,8-dihydropteridin-6(5H)-one]
> 6.00	> 6.00	> 6.00	–	CCC1C(=O)N(C)c2cnc(-c3c[nH]nc3-c3ccc(F)cc3F)nc2N1c1ccn(C)n1 (centres unmarked) [Example 420, 2-(3-(2,4-difluorophenyl)-1H-pyrazol-4-yl)-7-ethyl-5-methyl-8-(1-methyl-1H-pyrazol-3-yl)-7,8-dihydropteridin-6(5H)-one]
> 6.00	4.30 to 5.00	5.00 to 6.00	–	CC[C@@H]1C(=O)N(C)c2cnc(-n3ccnc3-c3ccncc3)nc2N1C1CCC1 [Example 81, (R)-8-cyclobutyl-7-ethyl-5-methyl-2-(2-(pyridin-4-yl)-1H-imidazol-1-yl)-7,8-dihydropteridin-6(5H)-one]
> 6.00	4.30 to 5.00	5.00 to 6.00	–	CC[C@@H]1C(=O)N(C)c2cnc(-n3ccnc3-c3nccs3)nc2N1C1CCOCC1 [Example 157, (R)-7-ethyl-5-methyl-8-(tetrahydro-2H-pyran-4-yl)-2-(2-(thiazol-2-yl)-1H-imidazol-1-yl)-7,8-dihydropteridin-6(5H)-one]
> 6.00	4.30 to 5.00	5.00 to 6.00	–	CC[C@@H]1C(=O)N(C)c2cnc(-n3ccnc3-c3nccs3)nc2N1C1CCOC1 (stereo partly drawn) [Example 221, (7R)-7-ethyl-5-methyl-8-(tetrahydrofuran-3-yl)-2-(2-(thiazol-2-yl)-1H-imidazol-1-yl)-7,8-dihydropteridin-6(5H)-one]
> 6.00	4.30 to 5.00	5.00 to 6.00	–	CC[C@@H]1C(=O)N(C)c2cnc(-n3ccnc3-c3ncccn3)nc2N1C1CCC1 [Example 183, (R)-8-cyclobutyl-7-ethyl-5-methyl-2-(2-(pyrimidin-2-yl)-1H-imidazol-1-yl)-7,8-dihydropteridin-6(5H)-one]
> 6.00	< 4.30	5.00 to 6.00	–	CC[C@@H]1C(=O)N(C)c2cnc(-n3ccnc3)nc2N1C(C)C [Example 22, (R)-7-ethyl-2-(1H-imidazol-1-yl)-8-isopropyl-5-methyl-7,8-dihydropteridin-6(5H)-one]
> 6.00	4.30 to 5.00	> 6.00	–	CC[C@@H]1C(=O)N(C)c2cnc(-c3ccncc3)nc2N1C1CCCC1 [Example 5, (R)-8-cyclopentyl-7-ethyl-5-methyl-2-(pyridin-4-yl)-7,8-dihydropteridin-6(5H)-one]
